Like-named read-outs stand apart in the source and are kept apart here.
Key:
[1] = test system: marble burying behaviour in mice; assay: Mouse Marble Burying Assay (BUR); assay type: in vivo; settings: Mus musculus, sc
Description: This assay was carried out essentially according to the procedure described by Treit et al. (1981) Pharmacol Biochem Behav; 15; 619-626.
The results are presented as BUR ED50 (sc). This is the effective dose causing 50% inhibition of burying compared to control mice.

[2] = test system: hyperpolarisation-activated inward cation current Ih in dorsal root ganglion (DRG) cells; assay: Inhibition of hyperpolarisation-activated cation current (Ih), whole cell voltage clamp on cultured DRG cells; assay type: cell-based; settings: (-) log concentration at which Ih activation rate constant kact is reduced by 50%; mean; rat DRG cells
Description: A) determining the potency of compounds to inhibit the hyperpolarisation-activated inward cation current Ih in dorsal root ganglion (DRG) cells of the rat; the effect is measured as the decrease in Ih activation rate and is expressed as the half maximal effect concentration (IC50) or the negative logarithm of this IC50 (known as pIC50).
To obtain E15 DRGs, pregnant Wistar rats were sacrificed. Embryos were removed and spinal cords with DRG attached to both sides were dissected out and collected in Hanks balanced salt solution (HBSS; Gibco). DRG were separated from the spinal cord and pooled in HBSS without Ca^2+ and Mg^2+. Dissociation of intact DRG was started by incubation with a 0.25% trypsin solution for 30 min at 37° C. Trypsination was stopped by diluting the enzyme and centrifugation (1 min; 2500 rpm). After aspiration of the supernatant the tissue pellet was triturated with DMEMF10 (DMEM supplemented with 10% fetal bovine serum (Hyclone), 6 g/l glucose and 2 mM I-glutamine) and centrifuged for 10 min at 1700 rpm. Dissociated DRG cells were resuspended in culture medium (DMEMF10 with 50 ng/ml NGF 2.5S (Alomone labs)), counted and plated out in a density of 1-2.105 cells on collagen (50 μg/ml) and/or poly-l-lysine (10-20 μg/ml) coated glass coverslips in 24-well tissue culture plates. Plates were kept in a humidified incubator at 37° C. and 5% CO2 for 72 hrs. Glial cell proliferation was inhibited when necessary by adding cytosine arabinoside (Ara-c) at a concentration of 5.10^−7 M. After 3 days fresh culture medium was administered. Medium was subsequently changed every […].
DRG cells were sampled with the whole cell voltage clamp method. Glass electrodes were pulled from thick-walled borosilicate capillaries with filament (1 mm outer diameter). Pipette resistance was 2-5 MΩ. Series resistance (5-15 MΩ) was compensated for to ensure so that potential errors made in the determination of the actual membrane potential were less then 2 mV. Cell capacitance (10-75 pF) compensation was used to compensate for capacitive currents. The extracellular solution contained (in mM): NaCl 140; KCl 5; CaCl2 2; MgCl2 1; D(+) glucose 5.6;HEPES 5; Sucrose 30; pH=7.4. The pipette solution contained (in mM): K-gluconate 119; NaCl 5; KCl 13; CsCl 2; CaCl2 1; EGTA 10;HEPES 10; pH=7.2. Cells were preincubated for more then 1½ hours with different concentrations (1E-9 to 1E-4 M) of test compound dissolved in extracellular solution at room temperature (20° C.) in normal air. Larger cells that appeared round with a pronounced halo under phase-contrast microscopy were selected because almost all of them expressed Ih. Data were acquired with a Digidata 1200® analogue to digital interface using PCLAMP® software (both from Axon Instruments). For Ih activation the cell was held at −63 mV and stepped to −123mV (potentials after correction for liquid junction potential). Current traces were selected for soundness, averaged and fitted to a first order exponential using PCLAMP® software (fit between 60 and 950 ms to avoid biasing by transient currents). Activation time constants (τ) for Ih under different drug concentrations were derived from this fit. The activation rate constant for Ih is defined as kact=1/τ.
The pIC50 is the (-) log concentration of a compound at which the Ih activation rate constant kact is reduced by 50%. pIC50 for a compound could be estimated adequately by fitting kact to the logarithm of the concentration with a logistic function using PRISM® software (Graphpad Inc.). The function chosen is:
kact=A/(1+10^ (log([compound])+pIC50)); A is kact [compound]=0M.
Averaging all control measurements yields that A=3.52 s^−1 and the maximum kact was forced to this value for all compounds in this study. The Hill slope that normally is estimated in concentration-effect relations appeared to be about 1 and was subsequently fixed to this value. […]

[3] = test system: REM sleep in male Wistar rats; assay: Rat Sleep Analysis: suppression of REM sleep; assay type: in vivo; settings: first 3 hours after drug administration
Description: Suppression of REM sleep in male Wistar rats was measured after treatment with compounds according to the invention or reference antidepressants using the methods described by Ruigt et al.(Electroencephalography and clinic Neurophysiology, 1989, 73, pages 52-63 & 64-71)
The values reported in Table 1 are expressed as percentage change over placebo for the amount of REM sleep in the first 3 hours after drug administration.

[4] = effective dose causing 50% inhibition of burying compared to control mice, read-out: BUR ED50 (SC)
[5] = Table 2, read-out: BUR sc ED50(mg/kg)

Compound	pIC50-Ih [2]	melting point	ED50 [1, 5]	other results
C=CCC(N)c1ccccc1-c1noc2cc(Cl)ccc12.Cl (stereo not drawn) [11(2), 2-(6-chloro-1,2-benzisoxazol-3-yl)-α-2-propenyl-benzenemethanamine hydrochloride]	6.44	174 to 185 °C	–	ED50 [1, 4]: 0.7 mg/kg
C=CC[C@H](N)c1ccccc1-c1noc2cc(F)ccc12.O=C(O)/C=C/C(=O)O [13(1), (S)-(−)-2-(6-fluoro-1,2-benzisoxazol-3-yl)-α-2-propenyl-benzenemethanamine (E)-butenedioate]	6.13	146 to 149 °C	–	ED50 [1, 4]: 1 mg/kg
C=CCC(N)c1ccccc1-c1ccc(Cl)s1.O=C(O)/C=C/C(=O)O (stereo not drawn) [15 (14), 2-(5-chlorothien-2-yl)-α-2-propenyl-benzenemethanamine (E)-butenedioate]	–	192 to 199 °C	19 mg/kg	–
C=CCC(N)c1ccccc1-c1noc2c1CCCC2.O=C(O)/C=C\C(=O)O (stereo not drawn) [15 (25), 2-(4,5,6,7-tetrahydro-1,2-benzisoxazol-3-yl)-α-2-propenyl-benzenemethanamine (Z)-butenedioate]	–	144 to 145 °C	3.2 mg/kg	–
C=CCC(N)c1ccccc1-c1cccc(C(F)(F)F)c1.O=C(O)/C=C/C(=O)O (stereo not drawn) [15 (34), 2-(3-trifluoromethylphenyl)-α-2-propenyl-benzenemethanamine (E)-butenedioate]	–	194 to 196 °C	6.9 mg/kg	–
C=CCC(N)c1ccccc1-c1ccc(Cl)cc1F.O=C(O)/C=C/C(=O)O (stereo not drawn) [15 (37), 2-(4-chloro-2-fluorophenyl)-α-2-propenyl-benzenemethanamine (E)-butenedioate]	–	213 to 215 °C	9 mg/kg	–
C=CCC(N)c1ccccc1-c1cncc2ccccc12.O=C(O)/C=C/C(=O)O (stereo not drawn) [16 (2), 2-(isoquinolin-4-yl)-α-2-propenyl-benzenemethanamine (E)-butenedioate]	–	246 to 248 °C	9.9 mg/kg	–
C=CCC(N)c1ccccc1-c1nccs1.O=C(O)/C=C/C(=O)O (stereo not drawn) [16 (4), 2-(thiazol-2-yl)-α-2-propenyl-benzenemethanamine (E)-butenedioate]	–	156 to 161 °C	9 mg/kg	–
C=CCC(N)c1ccccc1-c1noc2cnccc12.O=C(O)/C=C/C(=O)O (stereo not drawn) [16 (6), 2-(isoxazolo[5,4-c]pyridin-3-yl)-α-2-propenyl-benzenemethanamine (E)-butenedioate]	–	183 to 189 °C	3.8 mg/kg	–
C=CCC(N)c1ccccc1-c1noc2ccncc12.O=C(O)/C=C\C(=O)O (stereo not drawn) [16 (7), 2-(isoxazolo[4,5-c]pyridin-3-yl)-α-2-propenyl-benzenemethanamine (Z)-butenedioate]	–	151 to 153 °C	7.6 mg/kg	–
Cl.NC(Cc1ccccc1)c1ccccc1-c1noc2ccccc12 (stereo not drawn) [36(1), 2-(1,2-benzisoxazol-3-yl)-α-benzyl-benzenemethanamine hydrochloride]	–	210 to 246 °C (dec.)	–	ED50 [1, 4]: 2.5 mg/kg
Cl.NC(Cc1ccsc1)c1ccccc1-c1noc2ccccc12 (stereo not drawn) [36(2), 2-(1,2-benzisoxazol-3-yl)-α-[(thien-3-yl)-methyl)-benzenemethanamine hydrochloride]	–	264 to 267 °C	–	ED50 [1, 4]: 1.2 mg/kg
CN(C)CCC=C1c2ccccc2CCc2ccccc21 [Am, Amitriptyline]	–	–	–	percentage change over placebo for the amount of REM sleep ([3]; dose 4.6 mg/kg IP): −22%; percentage change over placebo for the amount of REM sleep ([3]; dose 10 mg/kg IP): −100%
C=CCC(N)c1ccccc1-c1noc2ccccc12.Cl (stereo not drawn) [Example 11, 2-(1,2-Benzisoxazol-3-yl)-α-2-propenyl-benzenemethanamine Hydrochloride]	–	191 °C	–	percentage change over placebo for the amount of REM sleep ([3]; dose 0.32 mg/kg IP): −44%; percentage change over placebo for the amount of REM sleep ([3]; dose 1 mg/kg IP): −88%; ED50 [1, 4]: 1.04 mg/kg
C=CC[C@@H](N)c1ccccc1-c1noc2ccccc12.Cl [Example 12, (R)-2-(1,2-Benzisoxazol-3-yl)-α-2-propenyl-benzenemethanamine Hydrochloride]	5.12	191 °C	–	–
C=CC[C@H](N)c1cc(F)ccc1-c1noc2ccccc12.O=C(O)/C=C/C(=O)O [Example 13(3), (S)-(−)-2-(1,2-benzisoxazol-3-yl)-5-fluoro-α-2-propenyl-benzenemethanamine (E)-butenedioate]	5.98	174 to 176 °C	–	–
C=CC[C@H](N)c1ccccc1-c1noc2ccccc12.Cl [Example 13, (S)-2-(1,2-Benzisoxazol-3-yl)-α-2-propenyl-benzenemethanamine Hydrochloride]	6.48	191 °C	–	percentage change over placebo for the amount of REM sleep ([3]; dose 0.1 mg/kg IP): −17%; percentage change over placebo for the amount of REM sleep ([3]; dose 0.32 mg/kg IP): −26%; percentage change over placebo for the amount of REM sleep ([3]; dose 1 mg/kg IP): −100%; ED50 [1, 4]: 0.39 mg/kg
CCCCC(N)c1ccccc1-c1noc2ccccc12.Cl (stereo not drawn) [Example 15, 2-(1,2-Benzisoxazol-3-yl)-α-butyl-benzenemethanamine Hydrochloride]	5.98	–	–	–
C=CC[C@H](N)c1ccccc1-c1noc2cc(Cl)ccc12.Cl [Example 19(2), (S)-(−)-2-(6-chloro-1,2-benzisoxazol-3-yl)-α-2-propenyl-benzenemethanamine hydrochloride]	6.79	169 to 178 °C	–	–
O=C(O)C(=O)O.c1ccc(CNCc2ccccc2-c2noc3ccccc23)cc1 [Example 21(3), 2-(1,2-benzisoxazol-3-yl)-N-benzyl-benzenemethanamine ethanedioate]	5.06	165 °C	–	–
CC(O)c1ccccc1-c1noc2ccccc12 (stereo not drawn) [Example 27, 2-(1,2-Benzisoxazol-3-yl)-α-methyl-benzenemethanol]	5.50	–	–	–
CC(N)c1ccccc1-c1noc2ccccc12.Cl (stereo not drawn) [Example 39, 2-(1,2-Benzisoxazol-3-yl)-α-methyl-benzenemethanamine Hydrochloride]	5.24	229 to 236 °C	–	–
COCCCC/C(=N\OCCN)c1ccc(C(F)(F)F)cc1 [Fl, Fluvoxamine]	–	–	–	percentage change over placebo for the amount of REM sleep ([3]; dose 4.6 mg/kg IP): 40%; percentage change over placebo for the amount of REM sleep ([3]; dose 22 mg/kg IP): −100%
O=C(NCCN1CCOCC1)c1ccc(Cl)cc1 [Mo, Moclobemide]	–	–	–	percentage change over placebo for the amount of REM sleep ([3]; dose 10 mg/kg IP): −61%; percentage change over placebo for the amount of REM sleep ([3]; dose 32 mg/kg IP): −100%
COc1ccc(C(CN(C)C)C2(O)CCCCC2)cc1 (stereo not shown) [Ve, Venlafaxine]	–	–	–	percentage change over placebo for the amount of REM sleep ([3]; dose 3.2 mg/kg IP): −77%

— patent US20020037885A1, “Therapeutic compounds” (priority 1999, published 2002)
